Assay results from patent publication US20260248799A1, “COMBINATIONS OF RETINALDEHYDE DEHYDROGENASE 1 (RALDH1) INHIBITORS AND IMMUNOSTIMULATORS AND METHODS USING SAME” (The Trustees of the University of Pennsylvania, priority 2023, published 2026).
“Also recorded” adds a separate entry of the source.

What was measured:
SNU398 cells = test: RT-qPCR of Raldh1, Raldh2 and Raldh3 transcripts in SNU398 cells; format: cell-based, human; conditions: SNU398, 24 hours
Method: FIG. 21A: Transcript levels (RT-qPCR) of Raldh1, Raldh2 and Raldh3 in SNU398 cells treated with different concentrations of C86 or C91 for 24 hours. FIG. 21B: Homology modeling identifies differences in amino acid residues between human and murine RALDH1 at sites predicted to bind RALDH1-INH. FIG. 21C: SNU398 cells were treated with various concentrations of C86 or C91 for 24 hours. Cell viability was measured by flow cytometry (FCM) with 7-AAD staining (Y-axis indicates percentage of 7-AAD negative cells).
Total RNA from mouse tissue samples and in vitro cultured cells was isolated using GenElute Mammalian Total RNA Miniprep Kit (Sigma) following the manufacturer's protocol. Total RNA from human FFPE samples was isolated by using Quick-RNA FFPE Miniprep Kit (Zymo Research) using the manufacturer's protocol. 1000 ng of RNA was used for reverse transcription using High Capacity RNA to cDNA Kit (Life Technologies). The cDNA product was 10× diluted. 2.5 μL of this cDNA was used for qPCR for each sample. Three or more replicates were used for each reaction. […] Expression fold was calculated as 2^−(CT target gene−CT housekeeping gene). Quantitative PCRs were run on a Viia 7 real time PCR system (ThermoFisher). The following target and housekeeping genes were measured using the commercially available TaqMan probes (ThermoFisher): […]

[1] = system: Glutamate, NMDA, Polyamine; test: Safetyscreen: NMDA, Polyamine; format: binding, rat; conditions: 10 μM
[2] = biological target: T1, Serotonin (5-Hydroxytryptamine) 5-HT2B (Homo sapiens, UniProt P41595); test: Safetyscreen: 5-HT2B; format: binding; conditions: read-out: % Inh. Serotonin (5-Hydroxytryptamine) 5-HT2B
T1 construct: Eurofins Cereps Panlabs (contract panel)

[3] = system: murine HCC cell line (Hepa1-6); test: AldeRed assay in Hepa1-6 cells; format: cell-based, mouse; conditions: murine HCC cell line Hepa1-6, 24 hours
Method: Cultures of tumor cells or primary monocyte-derived cells were treated with C86, C91, C99, BMS 493 (Tocris, 3509) or Win 18446 (Tocris, 4736) at a time and concentration indicated in corresponding figure legends.
The AldeRed assay (EMD Millipore) was performed according to manufacturer's instructions to identify cells with ALDH activity. In brief, single-cell suspensions of Huh7, Huh1, SNU449, SNU398, HEP3B, PLC, Hepa 1-6, Hep55, and AL458A cultured cells or single-cell suspension generated from enzymatic digestion of tumors generated from transplantation of these cells in mice (as indicated in figure legends) were incubated with a fluorescent and non-toxic ALDH substrate (AldeRed 588-A); the fluorescent product accumulates in cells proportional to their ALDH activity. The amount of fluorescence produced is measured by flow cytometry. The ALDH inhibitor diethylaminobenzaldehyde (DEAB, provided with the AldeRed assay kit) was used as a negative control for background fluorescence assessment.

Potassium Channel [KATP] = biological target: T2, Potassium Channel [KATP] (Cricetus cricetus, UniProt Q09427); test: Safetyscreen: Potassium Channel KATP; format: binding, hamster; conditions: read-out: % Inh. Potassium Channel [KATP]
T2 construct: Eurofins Cereps Panlabs (contract panel)

Adrenergic α2B = biological target: T3, Adrenergic α2B (Homo sapiens, UniProt P18089); test: Safetyscreen: Adrenergic α2B; format: binding; conditions: read-out: % Inh. Adrenergic α2B
T3 construct: Eurofins Cerep Panlabs (contract panel)

Adrenergic α1D = biological target: T4, Adrenergic α1D (Homo sapiens, UniProt P25100); test: Safetyscreen: Adrenergic α1D; format: binding; conditions: read-out: % Inh. Adrenergic α1D
T4 construct: Eurofins Cerep Panlabs (contract panel)

[4] = Toxicity observations with Raldh1-INH; conditions: mouse, in vivo
Method: Male CD1 or C57BL/6J mice between 6 and 8 weeks old and weighing approximately 20 to 30 grams were dosed with compound 86, compound 91, and compound 99 at 2 mg/kg (IV), 10 mg/kg (PO), and 10 or 30 mg/kg (IP). The compounds were formulated using a 20% hydroxypropyl-beta-cyclodextrin (HPbCD) solution in saline, was made on the day of dosing or directly prior to dosing. Each treatment group consisted of three mice, and plasma was collected at 5 minutes, 15 minutes, 30 minutes, 1 hour, 2 hours, 4 hours, 8 hours, 12 hours, and 24 hours post-dose for IV administration and at 15 minutes, 30 minutes, 1 hour, 2 hours, 4 hours, 8 hours, 12 hours, and 24 hours post-dose for PO administration. Approximately 0.025 mL of blood was collected from the dorsal metatarsal vein at each time point. […] Plasma samples were then stored in polypropylene tubes, quickly frozen, and kept at −75° C. until analyzed by LC/MS/MS. The following pharmacokinetic parameters were measured: Terminal half-life (T½), Concentration at immediately after injection (C0), Maximum concentration (Cmax), Time to reach max concentration (Tmax), Clearance (CL), Volume of distribution (Vd), Area under the curve (AUClast), and bioavailability (% F). Animals were also monitored during the in-life phase by once daily cage side observations; any adverse clinical signs were noted as part of the PK report.

T1 sequence (P41595 whole entry): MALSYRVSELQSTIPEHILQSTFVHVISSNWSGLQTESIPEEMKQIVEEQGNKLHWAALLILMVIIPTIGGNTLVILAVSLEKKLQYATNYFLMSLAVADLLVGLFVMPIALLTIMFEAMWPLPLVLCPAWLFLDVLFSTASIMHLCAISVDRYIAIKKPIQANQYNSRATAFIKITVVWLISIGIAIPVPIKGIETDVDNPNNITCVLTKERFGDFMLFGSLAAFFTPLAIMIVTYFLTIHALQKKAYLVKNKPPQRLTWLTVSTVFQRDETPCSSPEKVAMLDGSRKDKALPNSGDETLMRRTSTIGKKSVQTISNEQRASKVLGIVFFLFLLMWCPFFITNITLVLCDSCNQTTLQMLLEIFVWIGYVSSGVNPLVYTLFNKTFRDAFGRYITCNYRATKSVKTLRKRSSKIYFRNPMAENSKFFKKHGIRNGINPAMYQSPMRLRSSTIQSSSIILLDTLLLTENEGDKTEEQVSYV
T4 sequence (P25100 whole entry): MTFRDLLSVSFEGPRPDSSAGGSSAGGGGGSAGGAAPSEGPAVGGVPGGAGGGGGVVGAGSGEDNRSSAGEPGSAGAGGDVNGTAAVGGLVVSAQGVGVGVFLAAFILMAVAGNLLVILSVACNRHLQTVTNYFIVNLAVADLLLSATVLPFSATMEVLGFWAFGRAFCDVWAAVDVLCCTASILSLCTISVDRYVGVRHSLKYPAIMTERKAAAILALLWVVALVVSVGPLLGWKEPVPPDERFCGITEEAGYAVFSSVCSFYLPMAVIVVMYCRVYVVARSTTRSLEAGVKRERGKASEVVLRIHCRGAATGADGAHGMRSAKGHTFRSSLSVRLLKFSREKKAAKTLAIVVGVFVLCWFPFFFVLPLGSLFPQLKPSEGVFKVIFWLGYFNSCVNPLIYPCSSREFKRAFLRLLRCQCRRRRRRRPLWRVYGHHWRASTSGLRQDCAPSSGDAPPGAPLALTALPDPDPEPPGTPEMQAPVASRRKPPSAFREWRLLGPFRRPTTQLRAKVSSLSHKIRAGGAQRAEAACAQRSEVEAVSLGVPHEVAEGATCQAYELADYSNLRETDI
T3 sequence (P18089 whole entry): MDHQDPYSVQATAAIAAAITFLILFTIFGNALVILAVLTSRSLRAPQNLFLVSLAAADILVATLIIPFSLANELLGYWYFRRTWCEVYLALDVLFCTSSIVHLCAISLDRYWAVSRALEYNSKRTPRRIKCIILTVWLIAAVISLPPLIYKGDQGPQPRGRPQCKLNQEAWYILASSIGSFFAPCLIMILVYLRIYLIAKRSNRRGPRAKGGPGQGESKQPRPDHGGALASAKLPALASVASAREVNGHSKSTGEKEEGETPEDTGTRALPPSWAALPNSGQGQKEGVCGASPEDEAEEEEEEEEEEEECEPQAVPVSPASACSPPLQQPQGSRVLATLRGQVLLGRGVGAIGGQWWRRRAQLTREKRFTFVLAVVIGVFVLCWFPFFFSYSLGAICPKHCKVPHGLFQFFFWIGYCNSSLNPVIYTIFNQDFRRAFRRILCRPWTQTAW
T2 sequence (Q09427 whole entry): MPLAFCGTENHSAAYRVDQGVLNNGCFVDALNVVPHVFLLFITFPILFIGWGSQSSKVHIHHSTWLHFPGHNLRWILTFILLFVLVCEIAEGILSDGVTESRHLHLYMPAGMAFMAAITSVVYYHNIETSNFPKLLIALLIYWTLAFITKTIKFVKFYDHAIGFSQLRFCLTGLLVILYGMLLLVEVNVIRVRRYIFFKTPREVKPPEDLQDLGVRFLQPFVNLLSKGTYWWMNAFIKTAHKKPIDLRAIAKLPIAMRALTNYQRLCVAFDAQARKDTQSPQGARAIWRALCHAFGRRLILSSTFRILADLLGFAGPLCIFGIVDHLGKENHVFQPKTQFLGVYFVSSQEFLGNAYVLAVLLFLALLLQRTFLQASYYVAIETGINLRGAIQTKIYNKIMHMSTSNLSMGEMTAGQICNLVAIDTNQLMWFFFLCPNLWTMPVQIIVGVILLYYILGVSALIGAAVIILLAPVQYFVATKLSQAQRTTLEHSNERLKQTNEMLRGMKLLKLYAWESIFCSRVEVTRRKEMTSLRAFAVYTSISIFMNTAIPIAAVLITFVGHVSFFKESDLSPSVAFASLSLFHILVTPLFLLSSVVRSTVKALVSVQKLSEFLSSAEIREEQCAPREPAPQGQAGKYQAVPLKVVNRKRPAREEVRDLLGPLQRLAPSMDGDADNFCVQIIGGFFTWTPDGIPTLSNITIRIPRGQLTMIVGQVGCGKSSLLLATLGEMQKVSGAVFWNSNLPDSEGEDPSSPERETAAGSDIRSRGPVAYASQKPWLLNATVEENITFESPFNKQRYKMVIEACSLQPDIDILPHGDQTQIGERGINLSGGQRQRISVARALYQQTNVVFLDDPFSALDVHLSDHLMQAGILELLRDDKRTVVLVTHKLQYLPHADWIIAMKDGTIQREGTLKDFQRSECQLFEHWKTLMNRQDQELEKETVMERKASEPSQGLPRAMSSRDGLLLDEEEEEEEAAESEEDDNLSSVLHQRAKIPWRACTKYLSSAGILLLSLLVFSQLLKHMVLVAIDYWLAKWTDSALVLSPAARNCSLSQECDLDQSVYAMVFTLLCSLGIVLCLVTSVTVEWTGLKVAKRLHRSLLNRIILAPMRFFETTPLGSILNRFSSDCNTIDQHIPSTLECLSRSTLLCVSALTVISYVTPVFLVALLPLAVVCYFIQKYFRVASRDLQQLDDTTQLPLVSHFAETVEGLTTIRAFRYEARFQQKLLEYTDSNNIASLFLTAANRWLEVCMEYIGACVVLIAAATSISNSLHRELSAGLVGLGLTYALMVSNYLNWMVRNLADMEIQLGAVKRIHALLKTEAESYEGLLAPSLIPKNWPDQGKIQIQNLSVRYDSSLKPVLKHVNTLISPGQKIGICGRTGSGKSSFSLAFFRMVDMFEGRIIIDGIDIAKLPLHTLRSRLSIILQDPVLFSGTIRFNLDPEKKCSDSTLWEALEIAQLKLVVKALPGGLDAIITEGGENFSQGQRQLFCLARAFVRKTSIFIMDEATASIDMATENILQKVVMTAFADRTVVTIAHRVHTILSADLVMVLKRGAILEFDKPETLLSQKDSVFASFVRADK

For `CS(=O)(=O)N1CCN(C(=O)c2cnc3ccc(F)cc3c2N2CCC(C#N)(c3ccccc3)CC2)CC1` [Compound C-86, 1-(6-fluoro-3-(4-(methylsulfonyl)piperazine-1-carbonyl)quinolin-4-yl)-4-phenylpiperidine-4-carbonitrile], the “transcription of other RALDH isozymes” value (SNU398 cells) was “did not lead to compensatory increases in transcription”, the “% Inh. Glutamate, NMDA, Polyamine” value [1] was 1% and the inhibition at 10 µM [2] was -5%. The AldeRed fluorescence [3] was “no change in AldeRed fluorescence; also recorded: failed to reduce AldeRed fluorescence”, the inhibition at 10 µM (Potassium Channel [KATP]) was 28% and the inhibition at 10 µM (Adrenergic α2B) was 9%. The inhibition at 10 µM (Adrenergic α1D) was 6% and the signs of toxicity [4] was “no signs of toxicity have been observed”.
